Data taken from patent US6632816B1, “Aromatic derivatives as HIV aspartyl protease inhibitors” (Pharmacor Inc., priority 2002, dated 2003).

Target: HIV protease (Human immunodeficiency virus type 1 group M subtype B, UniProt P04585)
Assay: biochemical
Excerpt: Enzymatic Assay for Determining the Inhibition Constant (Ki) of Synthetic Compounds Targeting the HIV Protease
This is a fluorometric assay based on the cleavage by protease of a substrate carrying a donor group (EDANS) and an acceptor group (DABCYL) on each side of the cleavage site, interacting together through fluorescence resonance energy transfer (FRET) as described by Matayoshi et al. (Science 247:954-954, 1990).
After calculation of Vo and Vi, the inhibition constant (Ki) of the compound is determined using the equation of Henderson: [formula]
where Vo=the enzyme's initial velocity
Vi=the enzyme velocity in the presence of the inhibitory compound,
[I]=inhibitor concentration, [S]=substrate concentration,
Km=Michaelis-Menten constant and Kiapp=apparent Ki
Graphs are traced and the Ki determined using GraphPad Prism software v.

CCN[C@@H](Cc1ccc2ccccc2c1)C(=O)NCCCC[C@@H](CO)N(CC(C)C)S(=O)(=O)c1ccc(N)cc1 [Example 65, (2S,5S)-N-{5-[(4-Amino-benzenesulfonyl)-isobutyl-amino]-6-hydroxy-hexyl}-2-ethylamino-3-naphthalen-2-yl-propionamide]
Ki: 6.2 nM

CCCCN[C@@H](Cc1ccc2ccccc2c1)C(=O)NCCCC[C@@H](CO)N(CC(C)C)S(=O)(=O)c1ccc(N)cc1 [Example 68, (2S,5S)-N-{5-[(4-Amino-benzenesulfonyl)-isobutyl-amino]-6-hydroxy-hexyl}-2-butylamino-3-naphthalen-2-yl-propionamide]
Ki: 5.8 nM

CC(C)CN([C@H](CO)CCCCNC(=O)[C@H](Cc1ccc2ccccc2c1)NCC(C)(C)C)S(=O)(=O)c1ccc(N)cc1 [Example 69, (2S,5S)-N-{5-[(4-Amino-benzenesulfonyl)-isobutyl-amino]-6-hydroxy-hexyl}-2-(2,2-dimethyl-propylamino)-3-naphthalen-2-yl-propionamide]
Ki: 22 nM

CC(C)CN([C@H](CO)CCCCNC(=O)[C@H](Cc1ccc2ccccc2c1)NCc1ccccn1)S(=O)(=O)c1ccc(N)cc1 [Example 70, (2S,5S)-N-{5-[(4-Amino-benzenesulfonyl)-isobutyl-amino]-6-hydroxy-hexyl}-3-naphthalen-2-yl-2-[(pyridin-2-ylmethyl)-amino]-propionamide]
Ki: 4.9 nM

CC(C)CN([C@H](CO)CCCCNC(=O)[C@@H](N)C(c1ccccc1)c1ccccc1)S(=O)(=O)c1ccc(N)cc1 [Example 72, (2S,5S)-2-Amino-N-{5-[(4-amino-benzenesulfonyl)-isobutyl-amino]-6-hydroxy-hexyl}-3,3-diphenyl-propionamide]
Ki: 7.5 nM

CC(C)CN([C@H](CO)CCCCNC(=O)[C@@H](N)Cc1ccc2ccccc2c1)S(=O)(=O)c1ccc(F)c(N)c1 [Example 81, (2S,5S)-2-Amino-N-{5-[(3-amino-4-fluoro-benzenesulfonyl)-isobutyl-amino]-6-hydroxy-hexyl}-3-naphthalen-2-yl-propionamide]
Ki: < 3.8 nM

COC(=O)N[C@@H](Cc1ccc2ccccc2c1)C(=O)NCCCC[C@@H](CO)N(CC(C)C)S(=O)(=O)c1ccc(F)c(N)c1 [Example 82, (1S,5S)-(1-{5-[(3-Amino-4-fluoro-benzenesulfonyl)-isobutyl-amino]-6-hydroxy-hexylcarbamoyl}-2-naphthalen-2-yl-ethyl)-carbamic Acid Methyl Ester]
Ki: < 3.8 nM

CC(C)CN([C@H](CO)CCCCNC(=O)[C@H](Cc1ccc2ccccc2c1)NC(=O)c1cccnc1)S(=O)(=O)c1ccc(F)c(N)c1 [Example 83]
Ki: < 3.8 nM

CC(C)CN([C@H](CO)CCCCNC(=O)[C@H](Cc1ccc2ccccc2c1)NC(=O)c1ccncc1)S(=O)(=O)c1ccc(F)c(N)c1 [Example 84, (1S,5S)-N-(1-{5-[(3-Amino-4-fluoro-benzenesulfonyl)-isobutyl-amino]-6-hydroxy-hexylcarbamoyl}-2-naphthalen-2-yl-ethyl)-isonicotinamide]
Ki: < 3.8 nM

CC(C)CN([C@H](CO)CCCCNC(=O)[C@H](Cc1ccc2ccccc2c1)NC(=O)C1CCOC1)S(=O)(=O)c1ccc(F)c(N)c1 (stereo partly drawn) [Example 85, (1S,5S)-Tetrahydro-furan-3-carboxylic Acid (1-{5-[(3-Amino-4-fluoro-benzenesulfonyl)-isobutyl-amino]-6-hydroxy-hexylcarbamoyl}-2-naphthalen-2-yl-ethyl)-amide]
Ki: < 3.8 nM

CC(C)CN([C@H](CO)CCCCNC(=O)[C@H](Cc1ccc2ccccc2c1)NC(=O)N(C)C)S(=O)(=O)c1ccc(F)c(N)c1 [Example 86, (2S,5S)-N-{5-[(3-Amino-4-fluoro-benzenesulfonyl)-isobutyl-amino]-6-hydroxy-hexyl}-2-(3,3-dimethyl-ureido)-3-naphthalen-2-yl-propionamide]
Ki: < 3.8 nM

CC(C)CN([C@H](CO)CCCCNC(=O)[C@H](Cc1ccc2ccccc2c1)NC(=O)C1CC1)S(=O)(=O)c1ccc(F)c(N)c1 [Example 87, (1S,5S)-Cyclopropanecarboxylic Acid (1-{5-[(3-Amino-4-fluoro-benzenesulfonyl)-isobutyl-amino]-6-hydroxy-hexylcarbamoyl}-2-naphthalen-2-yl-ethyl)-amide]
Ki: < 3.8 nM

CC(C)CN([C@H](CO)CCCCNC(=O)[C@H](Cc1ccc2ccccc2c1)NC(=O)C1CCCCC1)S(=O)(=O)c1ccc(F)c(N)c1 [Example 88, (1S,5S)-Cyclohexanecarboxylic Acid (1-{5-[(3-Amino-4-fluoro-benzenesulfonyl)-isobutyl-amino]-6-hydroxy-hexylcarbamoyl}-2-naphthalen-2-yl-ethyl)-amide]
Ki: < 3.8 nM

CC(=O)N[C@@H](Cc1ccc2ccccc2c1)C(=O)NCCCC[C@@H](CO)N(CC(C)C)S(=O)(=O)c1ccc(F)c(N)c1 [Example 89, (2S,5S)-2-Acetylamino-N-{5-[(3-amino-4-fluoro-benzenesulfonyl)-isobutyl-amino]-6-hydroxy-hexyl}-3-naphthalen-2-yl-propionamide]
Ki: < 3.8 nM

CC(C)CN([C@H](CO)CCCCNC(=O)[C@H](Cc1ccc2ccccc2c1)NC(=O)OC(C)(C)C)S(=O)(=O)c1ccc(F)c(N)c1 [Example 90, (1S,5S)-(1-{5-[(3-Amino-4-fluoro-benzenesulfonyl)-isobutyl-amino]-6-hydroxy-hexylcarbamoyl}-2-naphthalen-2-yl-ethyl)-carbamic Acid tert-Butyl Ester]
Ki: 4 nM

CC(C)CN([C@H](CO)CCCCNC(=O)[C@H](Cc1ccc2ccccc2c1)NC(=O)OC(C)(C)C)S(=O)(=O)c1ccc(N)c(F)c1 [Example 91, (1S,5S)-(1-{5-[(4-Amino-3-fluoro-benzenesulfonyl)-isobutyl-amino]-6-hydroxy-hexylcarbamoyl}-2-naphthalen-2-yl-ethyl)-carbamic Acid tert-Butyl Ester]
Ki: < 3.8 nM

CC(C)CN([C@H](CO)CCCCNC(=O)[C@@H](NC(=O)N(C)C)C(c1ccccc1)c1ccccc1)S(=O)(=O)c1ccc(N)cc1 [Example 94, (2S,5S)-N-{5-[(4-Amino-benzenesulfonyl)-isobutyl-amino]-6-hydroxy-hexyl}-2-(3,3-dimethyl-ureido)-3,3-diphenyl-propionamide]
Ki: < 3.8 nM

CC(C)CN([C@H](CO)CCCCNC(=O)[C@@H](NC(=O)OCc1ccccn1)C(c1ccccc1)c1ccccc1)S(=O)(=O)c1ccc(N)cc1 [Example 95, (1S,5S)-(1-{5-[(4-Amino-benzenesulfonyl)-isobutyl-amino]-6-hydroxy-hexylcarbamoyl}-2,2-diphenyl-ethyl)-carbamic Acid Pyridin-2-ylmethyl Ester]
Ki: < 3.8 nM

CC(C)CN([C@H](CO)CCCCNC(=O)[C@@H](NC(=O)c1ccccn1)C(c1ccccc1)c1ccccc1)S(=O)(=O)c1ccc(N)cc1 [Example 96, (1S,5S)-Pyridine-2-carboxylic Acid (1-{5-[(4-Amino-benzenesulfonyl)-isobutyl-amino]-6-hydroxy-hexylcarbamoyl}-2,2-diphenyl-ethyl)-amide]
Ki: < 3.8 nM

CC(C)CN([C@H](CO)CCCCNC(=O)[C@@H](NC(=O)c1cnccn1)C(c1ccccc1)c1ccccc1)S(=O)(=O)c1ccc(N)cc1 [Example 97, (1S,5S)-Pyrazine-2-carboxylic Acid (1-{5-[(4-Amino-benzenesulfonyl)-isobutyl-amino]-6-hydroxy-hexylcarbamoyl}-2,2-diphenyl-ethyl)-amide]
Ki: < 3.8 nM

CC(C)CN([C@H](CO)CCCCNC(=O)[C@@H](NC(=O)c1ccc[nH]1)C(c1ccccc1)c1ccccc1)S(=O)(=O)c1ccc(N)cc1 [Example 98, (1S,5S)-Pyrrole-2-carboxylic Acid (1-{5-[(4-Amino-benzenesulfonyl)-isobutyl-amino]-6-hydroxy-hexylcarbamoyl}-2,2-diphenyl-ethyl)-amide]
Ki: < 3.8 nM

CC(C)CN([C@H](CO)CCCCNC(=O)[C@@H](NC(=O)Cc1cccnc1)C(c1ccccc1)c1ccccc1)S(=O)(=O)c1ccc(N)cc1 [Example 99, (2S,5S)-N-{5-[(4-Amino-benzenesulfonyl)-isobutyl-amino]-6-hydroxy-hexyl}-3,3-diphenyl-2-(2-pyridin-3-yl-acetylamino)-propionamide]
Ki: < 3.8 nM

CC(C)CN([C@H](CO)CCCCNC(=O)[C@@H](NC(=O)OCc1cccnc1)C(c1ccccc1)c1ccccc1)S(=O)(=O)c1ccc(N)cc1 [Example 100, (1S,5S)-(1-{5-[(4-Amino-benzenesulfonyl)-isobutyl-amino]-6-hydroxy-hexylcarbamoyl}-2,2-diphenyl-ethyl)-carbamic Acid Pyridin-3-ylmethyl Ester]
Ki: < 3.8 nM

CC(C)CN([C@H](CO)CCCCNC(=O)[C@@H](NC(=O)OCc1ccncc1)C(c1ccccc1)c1ccccc1)S(=O)(=O)c1ccc(N)cc1 [Example 101, (1S,5S)-(1-{5-[(4-Amino-benzenesulfonyl)-isobutyl-amino]-6-hydroxy-hexylcarbamoyl}-2,2-diphenyl-ethyl)-carbamic Acid Pyridin-4-ylmethyl Ester]
Ki: < 3.8 nM

CC(C)CN([C@H](CO)CCCCNC(=O)[C@@H](NC(=O)c1ccc(O)cc1)C(c1ccccc1)c1ccccc1)S(=O)(=O)c1ccc(N)cc1 [Example 102, (1S,5S)-N-(1-{5-[(4-Amino-benzenesulfonyl)-isobutyl-amino]-6-hydroxy-hexylcarbamoyl}-2,2-diphenyl-ethyl)-4-hydroxy-benzamide]
Ki: < 3.8 nM

CC(C)CN([C@H](CO)CCCCNC(=O)[C@@H](NC(=O)c1ccc(O)c([N+](=O)[O-])c1)C(c1ccccc1)c1ccccc1)S(=O)(=O)c1ccc(N)cc1 [Example 103, (1S,5S)-N-(1-{5-[(4-Amino-benzenesulfonyl)-isobutyl-amino]-6-hydroxy-hexylcarbamoyl}-2,2-diphenyl-ethyl)-4-hydroxy-3-nitro-benzamide]
Ki: < 3.8 nM

CC(C)CN([C@H](CO)CCCCNC(=O)[C@@H](NC(=O)c1ccccc1O)C(c1ccccc1)c1ccccc1)S(=O)(=O)c1ccc(N)cc1 [Example 104, (1S,5S)-N-(1-{5-[(4-Amino-benzenesulfonyl)-isobutyl-amino]-6-hydroxy-hexylcarbamoyl}-2,2-diphenyl-ethyl)-2-hydroxy-benzamide]
Ki: < 3.8 nM
